The values below come from US9452986B2, “6-heteroaryloxy- or 6-aryloxy-quinoline-2-carboxamides and method of use” (AbbVie Inc., priority 2014, dated 2016).

The target in experiment [1] is recombinant human Nav1.7 (Homo sapiens (Human), UniProt Q15858). Briefly: FRET-based membrane potential assay, recombinant human sodium channel Nav1.7. It counts as cell-based. Put shortly:
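Channel activation used veratridine at its EC80, set by a dilution curve each experiment, together with Leiurus scorpion venom, added 3 min after compound. Membrane-potential ratio signals from FLIPR Tetra in HEPES-buffered HBSS were fitted to a four-parameter Hill equation for percent inhibition and IC50.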

Experiment [2] has as its system osteoarthritic rats. The experiment in a line: Osteoarthritic (OA) pain induced by sodium monoiodoacetate (MIA), hind limb grip force. It counts as in vivo, rat. Particulars: Rattus norvegicus, 480 h, rat, 20 days following MIA injection, hind limb grip force, read-out: OA MPE; for inhibition in vivo at 30 mg/kg: OA dose 30 mg/kg; for inhibition in vivo at 10 mg/kg: OA dose 10 mg/kg. The method, then:
Osteoarthritic (OA) Pain Induced by Sodium Monoiodoacetate (MIA)
Pain behavior was assessed by measurement of hind limb grip force (GF) in adult osteoarthritic rats. Male Sprague Dawley rats, obtained from Charles River Laboratories, (Wilmington, Mass.), weighing 150-175 g, were injected in the unilateral knee join with a single intra-articular injection of sodium monoiodoacetate (MIA, 3 mg/rat). All rats were tested at 20 days following MIA injection. A behavioral measure of activity-induced pain was carried out. Measurements of the peak hind limb grip force were conducted by recording the maximum compressive force (CFmax), in grams of force, exerted on a hind limb strain gauge setup, in a commercially available grip force measurement system (Columbus Instruments, Columbus, Ohio).
During testing, each rat was gently restrained by grasping it around its rib cage and then allowed to grasp the wire mesh frame attached to the strain gauge. The experimenter then moved the animal in a rostral-to-caudal direction until the grip was broken. Each rat was sequentially tested twice at an approximately 2-3 minute interval to obtain a raw mean grip force (CFmax). This raw mean grip force data was in turn converted to a maximum hindlimb cumulative compressive force (CFmax), as the grams of force/kg of body weight, for each animal.
For evaluating the compound effects, the hind limb grip force was conducted 20 days following the intra-articular injection of MIA. A group of age-matched naïve (not injected with MIA) animals was added as a comparator to the drug-dosed groups. The vehicle control response for each group of MIA-treated animals was defined as the 0% response (0% effect), whereas the naïve control group was defined as the normal response and as 100% effect. The % effect for each dose group was expressed as % return of response to normalcy, compared to the naïve group. A percent maximal possible effect (% MPE) of testing compound was calculated according to the formula: (Treatment CFmax−Vehicle CFmax)/Vehicle CFmax]×100). Higher % effect numbers indicate increased relief from the pain in the model, with 100% indicating a return to the level of response seen in normal (non-osteoarthritic) animals. All experiments evaluating drug effects in this model were conducted in a randomized blinded fashion.
The animals were housed in Association for Assessment and Accreditation of Laboratory Animal Care (AAALAC) approved facilities at AbbVie Inc. in a temperature-regulated environment under a controlled 12-hour light-dark cycle, with lights on at 6:00 a.m. Food and water were available ad libitum at all times except during testing. All testing was done following procedures outlined in protocols approved by AbbVie Inc.'s Institutional Animal Care and Use Committee.

Setting [3] is: HEK293 cells stably expressing recombinant human Nav1.7, veratridine + scorpion venom depolarization, read-out: FRET-Membrane Potential Nav1.7 IC50.
Setting [4] is: read-out: FRET-Membrane Potential Nav1.7 IC50.

Like-named read-outs stand apart in the source and are kept apart here.

Chain of recombinant human Nav1.7 (Q15858 whole entry): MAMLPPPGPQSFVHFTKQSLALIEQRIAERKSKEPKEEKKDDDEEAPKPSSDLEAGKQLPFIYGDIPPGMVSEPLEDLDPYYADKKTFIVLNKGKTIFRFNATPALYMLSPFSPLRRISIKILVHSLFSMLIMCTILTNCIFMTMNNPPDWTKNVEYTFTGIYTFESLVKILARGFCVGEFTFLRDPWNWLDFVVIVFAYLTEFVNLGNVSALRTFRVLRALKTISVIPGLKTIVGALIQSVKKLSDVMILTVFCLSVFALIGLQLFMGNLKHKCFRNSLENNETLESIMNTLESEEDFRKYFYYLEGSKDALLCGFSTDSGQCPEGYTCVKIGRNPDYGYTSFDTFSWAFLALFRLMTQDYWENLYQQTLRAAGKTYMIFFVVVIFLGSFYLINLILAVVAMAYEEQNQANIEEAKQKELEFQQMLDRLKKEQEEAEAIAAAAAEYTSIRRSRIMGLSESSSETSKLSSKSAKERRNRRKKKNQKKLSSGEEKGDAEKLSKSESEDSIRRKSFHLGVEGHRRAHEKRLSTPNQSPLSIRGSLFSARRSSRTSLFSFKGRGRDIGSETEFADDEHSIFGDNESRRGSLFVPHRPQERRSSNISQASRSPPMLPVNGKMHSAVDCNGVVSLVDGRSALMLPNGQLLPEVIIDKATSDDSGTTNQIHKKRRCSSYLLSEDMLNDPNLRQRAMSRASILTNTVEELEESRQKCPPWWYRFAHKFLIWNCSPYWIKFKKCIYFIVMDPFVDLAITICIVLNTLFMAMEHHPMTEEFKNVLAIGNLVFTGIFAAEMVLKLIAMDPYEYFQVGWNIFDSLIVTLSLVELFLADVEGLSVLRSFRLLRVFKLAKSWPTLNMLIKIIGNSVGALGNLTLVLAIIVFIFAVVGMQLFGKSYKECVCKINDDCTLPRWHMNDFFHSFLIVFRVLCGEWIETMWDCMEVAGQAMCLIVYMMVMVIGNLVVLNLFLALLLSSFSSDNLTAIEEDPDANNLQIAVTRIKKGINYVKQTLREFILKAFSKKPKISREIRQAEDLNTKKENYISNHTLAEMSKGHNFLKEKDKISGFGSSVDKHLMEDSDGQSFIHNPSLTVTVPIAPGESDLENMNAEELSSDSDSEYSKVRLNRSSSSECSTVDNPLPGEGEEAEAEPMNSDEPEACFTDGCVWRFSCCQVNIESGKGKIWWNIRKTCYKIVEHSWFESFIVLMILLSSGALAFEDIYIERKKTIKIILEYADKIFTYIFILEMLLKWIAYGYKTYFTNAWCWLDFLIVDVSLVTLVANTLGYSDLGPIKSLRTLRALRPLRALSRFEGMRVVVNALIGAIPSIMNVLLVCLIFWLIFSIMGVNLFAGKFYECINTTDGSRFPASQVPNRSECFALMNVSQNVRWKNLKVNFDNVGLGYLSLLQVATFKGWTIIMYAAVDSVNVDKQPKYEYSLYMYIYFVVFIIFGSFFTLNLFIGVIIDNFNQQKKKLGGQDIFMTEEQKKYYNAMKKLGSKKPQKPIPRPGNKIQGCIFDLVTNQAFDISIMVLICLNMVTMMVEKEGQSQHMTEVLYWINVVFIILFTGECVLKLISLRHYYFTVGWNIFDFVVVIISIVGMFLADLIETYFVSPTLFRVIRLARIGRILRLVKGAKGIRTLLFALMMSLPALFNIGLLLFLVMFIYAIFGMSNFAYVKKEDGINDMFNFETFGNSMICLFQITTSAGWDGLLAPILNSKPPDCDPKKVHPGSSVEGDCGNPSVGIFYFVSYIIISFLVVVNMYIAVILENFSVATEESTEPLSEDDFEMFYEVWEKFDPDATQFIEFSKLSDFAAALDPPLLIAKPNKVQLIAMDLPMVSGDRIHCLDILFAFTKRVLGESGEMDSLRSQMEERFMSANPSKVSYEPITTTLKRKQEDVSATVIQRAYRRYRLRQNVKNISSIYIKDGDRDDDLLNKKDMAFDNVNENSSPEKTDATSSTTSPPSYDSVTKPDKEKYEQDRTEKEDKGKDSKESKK

Consider `O=C(c1ccc2cc(Oc3ccc(C(F)(F)F)cn3)ccc2n1)N1C[C@@H]2C[C@H]1CN2` [Example 3, (1S,4S)-2,5-diazabicyclo[2.2.1]hept-2-yl(6-{[5-(trifluoromethyl)pyridin-2-yl]oxy}quinolin-2-yl)methanone], for which the half-maximal inhibitory concentration (IC50) (in general, the concentration that gives 50% inhibition) in experiment [1] (setting [3]) was 1450 nM. Besides, the inhibition in vivo at 30 mg/kg in experiment [2] came out at 46%.
The corresponding values for `O=C(N[C@@H]1CCS(=O)(=O)C1)c1ccc2cc(Oc3ccc(C(F)(F)F)cn3)ccc2n1` [Example 5, N-[(3R)-1,1-dioxidotetrahydrothiophen-3-yl]-6-{[5-(trifluoromethyl)pyridin-2-yl]oxy}quinoline-2-carboxamide] are 262 nM and 27%.
Take `CC(=O)c1ccc(Oc2ccc3nc(C(=O)N4CCNCC4)ccc3c2)cc1` [Example 7, 1-(4-{[2-(piperazin-1-ylcarbonyl)quinolin-6-yl]oxy}phenyl)ethanone]: the inhibition in vivo at 30 mg/kg in experiment [2] was 51%.
For the compound `NC1CN(C(=O)c2ccc3cc(Oc4ccc(C(F)(F)F)cn4)ccc3n2)C1` [Example 8, (3-aminoazetidin-1-yl)(6-{[5-(trifluoromethyl)pyridin-2-yl]oxy}quinolin-2-yl)methanone], the 50% inhibitory concentration (IC50) in experiment [1] (setting [3]) worked out at 232 nM. Moreover, the inhibition in vivo at 30 mg/kg in experiment [2] stood at 91%.
On to `O=C(c1ccc2cc(Oc3ccc(C(F)(F)F)cn3)ccc2n1)N1C[C@@H](O)[C@@H](O)C1` [Example 9, [cis-3,4-dihydroxypyrrolidin-1-yl](6-{[5-(trifluoromethyl)pyridin-2-yl]oxy}quinolin-2-yl)methanone], for which, in experiment [1] (setting [3]), the half-inhibitory concentration (IC50) turned out to be 2080 nM. The inhibition in vivo at 10 mg/kg in experiment [2] is 68%.
For the compound `C[C@@H]1CN(C(=O)c2ccc3cc(Oc4ccc(C(F)(F)F)cn4)ccc3n2)CCN1` [Example 12, [(3R)-3-methylpiperazin-1-yl](6-{[5-(trifluoromethyl)pyridin-2-yl]oxy}quinolin-2-yl)methanone], the 50% inhibitory concentration (IC50) in experiment [1] (setting [4]) came out at 348 nM. The inhibition in vivo at 10 mg/kg in experiment [2] was determined as 79%.
For `C[C@H]1CN(C(=O)c2ccc3cc(Oc4ccc(C(F)(F)F)cn4)ccc3n2)CCN1` [Example 13, [(3S)-3-methylpiperazin-1-yl](6-{[5-(trifluoromethyl)pyridin-2-yl]oxy}quinolin-2-yl)methanone], the IC50 in experiment [1] (setting [4]) turned out to be 454 nM. Also, the inhibition in vivo at 10 mg/kg in experiment [2] was 44%.
For `O=C(NC1CCS(=O)(=O)CC1)c1ccc2cc(Oc3ccc(C(F)(F)F)cn3)ccc2n1` [Example 15, N-(1,1-dioxidotetrahydro-2H-thiopyran-4-yl)-6-{[5-(trifluoromethyl)pyridin-2-yl]oxy}quinoline-2-carboxamide], the 50% inhibitory concentration (IC50) in experiment [1] (setting [3]) is 1090 nM. Besides, the inhibition in vivo at 10 mg/kg in experiment [2] was 52%.
For the compound `CC[C@@H]1CN(C(=O)c2ccc3cc(Oc4ccc(C(F)(F)F)cn4)ccc3n2)CCN1` [Example 16, [(3R)-3-ethylpiperazin-1-yl](6-{[5-(trifluoromethyl)pyridin-2-yl]oxy}quinolin-2-yl)methanone], the IC50 in experiment [1] (setting [3]) turned out to be 406 nM. Moreover, the inhibition in vivo at 10 mg/kg in experiment [2] came to 57%.
With `O=C(c1ccc2cc(Oc3ccc(C(F)(F)F)cn3)ccc2n1)N1CCN[C@@H](CO)C1` [Example 17, [(3R)-3-(hydroxymethyl)piperazin-1-yl](6-{[5-(trifluoromethyl)pyridin-2-yl]oxy}quinolin-2-yl)methanone], in experiment [1] (setting [4]), the 50% inhibitory concentration (IC50) came to 3120 nM. In experiment [2], the inhibition in vivo at 10 mg/kg worked out at 19%.
Consider `O=C(NCCN1CCOCC1)c1ccc2cc(Oc3ccc(C(F)(F)F)cn3)ccc2n1` [Example 21, N-[2-(morpholin-4-yl)ethyl]-6-{[5-(trifluoromethyl)pyridin-2-yl]oxy}quinoline-2-carboxamide], for which the IC50 in experiment [1] (setting [3]) worked out at 529 nM. The inhibition in vivo at 10 mg/kg in experiment [2] amounted to 35%.
As to `O=C(N[C@@H]1CS(=O)(=O)C[C@H]1O)c1ccc2cc(Oc3ccc(C(F)(F)F)cn3)ccc2n1` [Example 24, N-[(3S,4S)-4-hydroxy-1,1-dioxidotetrahydrothiophen-3-yl]-6-{[5-(trifluoromethyl)pyridin-2-yl]oxy}quinoline-2-carboxamide], in experiment [1] (setting [4]), the IC50 was 1580 nM. Besides, the inhibition in vivo at 10 mg/kg in experiment [2] worked out at 62%.
As to `O=C(N[C@H]1CS(=O)(=O)C[C@H]1O)c1ccc2cc(Oc3ccc(C(F)(F)F)cn3)ccc2n1` [Example 26, N-[(3R,4S)-4-hydroxy-1,1-dioxidotetrahydrothiophen-3-yl]-6-{[5-(trifluoromethyl)pyridin-2-yl]oxy}quinoline-2-carboxamide], the IC50 in experiment [1] (setting [4]) turned out to be 1990 nM. The inhibition in vivo at 10 mg/kg in experiment [2] was determined as 67%.
Turning to `O=C(c1ccc2cc(Oc3ccc(C(F)(F)F)cn3)ccc2n1)N1CC(=O)N2CCC[C@H]2C1` [Example 27, (8aS)-2-[(6-{[5-(trifluoromethyl)pyridin-2-yl]oxy}quinolin-2-yl)carbonyl]hexahydropyrrolo[1,2-a]pyrazin-4(1H)-one], the IC50 in experiment [1] (setting [3]) was 1100 nM. In experiment [2], the inhibition in vivo at 10 mg/kg was determined as 49%.
For `CS(=O)(=O)C1CN(C(=O)c2ccc3cc(Oc4ccc(C(F)(F)F)cn4)ccc3n2)C1` [Example 29, [3-(methylsulfonyl)azetidin-1-yl](6-{[5-(trifluoromethyl)pyridin-2-yl]oxy}quinolin-2-yl)methanone], the inhibition in vivo at 10 mg/kg in experiment [2] was found to be 20%.
With `CC(C)(O)CNC(=O)c1ccc2cc(Oc3ccc(C(F)(F)F)cn3)ccc2n1` [Example 30, N-(2-hydroxy-2-methylpropyl)-6-{[5-(trifluoromethyl)pyridin-2-yl]oxy}quinoline-2-carboxamide], the IC50 in experiment [1] (setting [3]) was determined as 793 nM. For the same compound, the inhibition in vivo at 10 mg/kg in experiment [2] came out at 66%.
On to `O=C(NC1CC[S+]([O-])CC1)c1ccc2cc(Oc3ccc(C(F)(F)F)cn3)ccc2n1` (stereo not drawn) [Example 32, N-(1-oxidotetrahydro-2H-thiopyran-4-yl)-6-{[5-(trifluoromethyl)pyridin-2-yl]oxy}quinoline-2-carboxamide], for which, in experiment [1] (setting [4]), the IC50 came out at 535 nM. Further, in experiment [2], the inhibition in vivo at 10 mg/kg worked out at 23%.
With `O=C(N[C@H]1C[C@@H](O)C1)c1ccc2cc(Oc3ccc(C(F)(F)F)cn3)ccc2n1` [Example 34, N-(cis-3-hydroxycyclobutyl)-6-{[5-(trifluoromethyl)pyridin-2-yl]oxy}quinoline-2-carboxamide], in experiment [1] (FRET-Membrane Potential Nav1.7 IC50), the 50% inhibitory concentration (IC50) was 841 nM. Also, in experiment [2], the inhibition in vivo at 10 mg/kg was 41%.
Turning to `O=C(c1ccc2cc(Oc3ccc(OC(F)(F)F)cn3)ccc2n1)N1CCNCC1` [Example 431, piperazin-1-yl(6-{[5-(trifluoromethoxy)pyridin-2-yl]oxy}quinolin-2-yl)methanone], in experiment [2], the inhibition in vivo at 30 mg/kg turned out to be 73%.
Take `O=C(NC1CC(F)C1)c1ccc2cc(Oc3ccc(C(F)F)cn3)ccc2n1` (stereo not drawn) [Example 617, 6-{[5-(difluoromethyl)pyridin-2-yl]oxy}-N-(3-fluorocyclobutyl)quinoline-2-carboxamide]: the IC50 in experiment [1] (setting [3]) was 2780 nM.
Regarding `COCC1(F)CCN(C(=O)c2ccc3cc(Oc4ccc(C(F)(F)F)cn4)ccc3n2)CC1` [Example 618, [4-fluoro-4-(methoxymethyl)piperidin-1-yl](6-{[5-(trifluoromethyl)pyridin-2-yl]oxy}quinolin-2-yl)methanone], the IC50 in experiment [1] (setting [4]) was 2690 nM.
For the compound “[cis-2,2-dimethyltetrahydro-5H-[1,3]dioxolo[4,5-c]pyrrol-5-yl](6-{[5-(trifluoromethyl)pyridin-2-yl]oxy}quinolin-2-yl)methanone [Example 373]”, in experiment [1] (setting [3]), the IC50 was determined as 3700 nM.
Regarding “{2-[(dimethylamino)methyl]morpholin-4-yl}(6-{[5-(trifluoromethyl)pyridin-2-yl]oxy}quinolin-2-yl)methanone [Example 374]”, in experiment [1] (setting [3]), the concentration for half-maximal inhibition (IC50) worked out at 970 nM.
